Literature values in US20190328772A1, “OPHTHALMIC COMPOSITIONS COMPRISING A CYCLODEXTRIN AS SOLE ACTIVE AGENT” (priority 2016, published 2019).
Like-named read-outs stand apart in the source and are kept apart here.

How the values were obtained:
drusen = details: 37° C., 24 hours
mouse brown fat tissue = details: concentrations of 25-40%, 24 hours
[1] = system: corneal epithelium of rabbits

## CC(O)COC[C@H]1O[C@@H]2O[C@H]3[C@H](O)[C@@H](O)[C@@H](O[C@H]4[C@H](O)[C@@H](O)[C@@H](O[C@H]5[C@H](O)[C@@H](O)[C@@H](O[C@H]6[C@H](O)[C@@H](O)[C@@H](O[C@H]7[C@H](O)[C@@H](O)[C@@H](O[C@H]8[C@H](O)[C@@H](O)[C@@H](O[C@H]1[C@H](O)[C@H]2O)O[C@@H]8COCC(C)O)O[C@@H]7COCC(C)O)O[C@@H]6COCC(C)O)O[C@@H]5COCC(C)O)O[C@@H]4COCC(C)O)O[C@@H]3COCC(C)O (stereo partly drawn) [HP-β-CD, Hydroxypropyl-β-cyclodextrin]
drusen; 40 ml of 25%, sections of a cut up human eye
  dissolving the lipid component in drusen: efficacy in dissolving the lipid component in drusen
drusen; 40 ml of different concentrations, eye sections
  change of drusen by H&E staining: no change
Mouse brown fat tissue
  removal of mouse brown fat tissue: able to partially remove mouse brown fat tissue
[1]; rabbit, in vivo
  toxicity or irritation in rabbit eyes: not to be toxic or irritating

## randomly methylated β-CD [RM-β-CD]
[1]; concentration 5%
  toxicity to the corneal epithelium of rabbits: can be toxic

## β-Cyclodextrin sulfobutyl ether [SBE-β-CD]
[1]; solution of 10%
  toxicity or irritation in rabbit eyes: not to be toxic or irritating
